{"source": "paper doi:10.1101/2025.01.28.635346v1", "about": "(bioRxiv, 2025)", "key": {"EDNRA": {"biological_target": "T1, EDNRA (Homo sapiens, UniProt P25101)", "T1 sequence (P25101 21-427)": "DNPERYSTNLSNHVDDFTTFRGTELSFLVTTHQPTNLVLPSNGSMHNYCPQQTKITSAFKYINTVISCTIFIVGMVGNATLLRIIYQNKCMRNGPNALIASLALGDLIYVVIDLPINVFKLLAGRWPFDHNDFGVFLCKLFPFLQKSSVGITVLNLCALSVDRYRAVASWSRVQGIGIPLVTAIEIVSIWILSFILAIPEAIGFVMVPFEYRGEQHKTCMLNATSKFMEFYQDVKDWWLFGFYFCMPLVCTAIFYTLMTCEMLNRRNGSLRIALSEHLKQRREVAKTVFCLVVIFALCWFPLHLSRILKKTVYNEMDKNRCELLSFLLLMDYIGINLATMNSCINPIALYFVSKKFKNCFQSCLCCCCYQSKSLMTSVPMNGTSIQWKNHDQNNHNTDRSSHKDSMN", "assay": "Safetyscan47 GPCR Calcium Flux, Agonist", "type": "cell-based"}, "[1]": {"assay": "Hepatocyte stability, cryopreserved human hepatocytes", "type": "in vitro ADME"}, "HTR2B": {"biological_target": "HTR2B (Homo sapiens, UniProt P41595)", "sequence (P41595 whole entry)": "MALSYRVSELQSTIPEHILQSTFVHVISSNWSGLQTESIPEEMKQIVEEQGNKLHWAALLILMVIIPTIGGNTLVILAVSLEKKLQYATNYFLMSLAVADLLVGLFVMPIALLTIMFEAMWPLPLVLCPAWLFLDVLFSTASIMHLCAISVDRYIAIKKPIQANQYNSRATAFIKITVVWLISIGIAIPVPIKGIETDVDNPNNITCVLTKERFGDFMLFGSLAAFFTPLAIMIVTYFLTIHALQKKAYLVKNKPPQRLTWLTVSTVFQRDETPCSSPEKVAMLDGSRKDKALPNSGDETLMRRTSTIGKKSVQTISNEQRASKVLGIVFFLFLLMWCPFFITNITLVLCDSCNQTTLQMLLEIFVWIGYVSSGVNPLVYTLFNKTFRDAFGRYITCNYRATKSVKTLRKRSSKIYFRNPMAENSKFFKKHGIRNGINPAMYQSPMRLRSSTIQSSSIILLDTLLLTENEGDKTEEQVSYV", "assay": "Safetyscan47 GPCR Calcium Flux, Antagonist", "type": "cell-based"}, "VEGFR2": {"biological_target": "VEGFR2 (Homo sapiens, UniProt P35968)", "sequence (P35968 20-1356)": "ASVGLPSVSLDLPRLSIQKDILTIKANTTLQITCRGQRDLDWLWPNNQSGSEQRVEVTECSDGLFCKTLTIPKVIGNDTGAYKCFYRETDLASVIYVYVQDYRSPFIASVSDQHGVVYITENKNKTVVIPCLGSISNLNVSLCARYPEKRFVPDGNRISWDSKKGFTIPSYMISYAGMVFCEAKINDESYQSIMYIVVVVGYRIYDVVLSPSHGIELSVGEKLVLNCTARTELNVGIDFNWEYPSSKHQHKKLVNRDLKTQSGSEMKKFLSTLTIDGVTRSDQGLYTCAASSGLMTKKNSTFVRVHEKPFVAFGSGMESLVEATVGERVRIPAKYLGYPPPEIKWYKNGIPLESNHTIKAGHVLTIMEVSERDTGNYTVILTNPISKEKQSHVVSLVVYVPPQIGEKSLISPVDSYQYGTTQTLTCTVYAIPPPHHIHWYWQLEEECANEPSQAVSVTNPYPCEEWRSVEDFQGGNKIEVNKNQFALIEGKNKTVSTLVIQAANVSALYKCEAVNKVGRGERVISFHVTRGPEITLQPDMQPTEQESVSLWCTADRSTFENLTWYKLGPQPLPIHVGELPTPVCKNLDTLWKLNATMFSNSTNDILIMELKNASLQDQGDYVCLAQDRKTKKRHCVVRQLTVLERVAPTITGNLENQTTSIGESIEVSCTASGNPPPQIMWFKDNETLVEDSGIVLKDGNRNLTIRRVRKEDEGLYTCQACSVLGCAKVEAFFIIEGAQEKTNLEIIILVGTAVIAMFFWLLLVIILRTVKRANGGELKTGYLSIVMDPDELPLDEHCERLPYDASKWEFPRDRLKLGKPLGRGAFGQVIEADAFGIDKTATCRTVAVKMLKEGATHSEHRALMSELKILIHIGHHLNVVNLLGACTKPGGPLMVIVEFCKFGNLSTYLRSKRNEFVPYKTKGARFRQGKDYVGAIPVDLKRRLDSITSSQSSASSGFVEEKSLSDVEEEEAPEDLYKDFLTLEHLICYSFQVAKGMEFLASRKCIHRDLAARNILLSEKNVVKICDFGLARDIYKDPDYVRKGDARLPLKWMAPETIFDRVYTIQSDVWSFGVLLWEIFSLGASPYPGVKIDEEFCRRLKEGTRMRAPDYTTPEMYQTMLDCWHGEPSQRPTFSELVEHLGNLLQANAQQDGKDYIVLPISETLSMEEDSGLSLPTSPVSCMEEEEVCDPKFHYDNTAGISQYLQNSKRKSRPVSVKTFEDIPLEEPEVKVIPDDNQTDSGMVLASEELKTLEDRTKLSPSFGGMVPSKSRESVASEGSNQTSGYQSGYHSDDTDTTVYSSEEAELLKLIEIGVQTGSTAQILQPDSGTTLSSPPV", "assay": "Safetyscan47 Kinases Binding, Inhibitor"}, "NMDAR (1A/2B)": {"biological_target": "NMDAR (1A/2B) (Homo sapiens, UniProt Q05586+Q13224)", "sequence (Q13224 27-1484, other chains not shown)": "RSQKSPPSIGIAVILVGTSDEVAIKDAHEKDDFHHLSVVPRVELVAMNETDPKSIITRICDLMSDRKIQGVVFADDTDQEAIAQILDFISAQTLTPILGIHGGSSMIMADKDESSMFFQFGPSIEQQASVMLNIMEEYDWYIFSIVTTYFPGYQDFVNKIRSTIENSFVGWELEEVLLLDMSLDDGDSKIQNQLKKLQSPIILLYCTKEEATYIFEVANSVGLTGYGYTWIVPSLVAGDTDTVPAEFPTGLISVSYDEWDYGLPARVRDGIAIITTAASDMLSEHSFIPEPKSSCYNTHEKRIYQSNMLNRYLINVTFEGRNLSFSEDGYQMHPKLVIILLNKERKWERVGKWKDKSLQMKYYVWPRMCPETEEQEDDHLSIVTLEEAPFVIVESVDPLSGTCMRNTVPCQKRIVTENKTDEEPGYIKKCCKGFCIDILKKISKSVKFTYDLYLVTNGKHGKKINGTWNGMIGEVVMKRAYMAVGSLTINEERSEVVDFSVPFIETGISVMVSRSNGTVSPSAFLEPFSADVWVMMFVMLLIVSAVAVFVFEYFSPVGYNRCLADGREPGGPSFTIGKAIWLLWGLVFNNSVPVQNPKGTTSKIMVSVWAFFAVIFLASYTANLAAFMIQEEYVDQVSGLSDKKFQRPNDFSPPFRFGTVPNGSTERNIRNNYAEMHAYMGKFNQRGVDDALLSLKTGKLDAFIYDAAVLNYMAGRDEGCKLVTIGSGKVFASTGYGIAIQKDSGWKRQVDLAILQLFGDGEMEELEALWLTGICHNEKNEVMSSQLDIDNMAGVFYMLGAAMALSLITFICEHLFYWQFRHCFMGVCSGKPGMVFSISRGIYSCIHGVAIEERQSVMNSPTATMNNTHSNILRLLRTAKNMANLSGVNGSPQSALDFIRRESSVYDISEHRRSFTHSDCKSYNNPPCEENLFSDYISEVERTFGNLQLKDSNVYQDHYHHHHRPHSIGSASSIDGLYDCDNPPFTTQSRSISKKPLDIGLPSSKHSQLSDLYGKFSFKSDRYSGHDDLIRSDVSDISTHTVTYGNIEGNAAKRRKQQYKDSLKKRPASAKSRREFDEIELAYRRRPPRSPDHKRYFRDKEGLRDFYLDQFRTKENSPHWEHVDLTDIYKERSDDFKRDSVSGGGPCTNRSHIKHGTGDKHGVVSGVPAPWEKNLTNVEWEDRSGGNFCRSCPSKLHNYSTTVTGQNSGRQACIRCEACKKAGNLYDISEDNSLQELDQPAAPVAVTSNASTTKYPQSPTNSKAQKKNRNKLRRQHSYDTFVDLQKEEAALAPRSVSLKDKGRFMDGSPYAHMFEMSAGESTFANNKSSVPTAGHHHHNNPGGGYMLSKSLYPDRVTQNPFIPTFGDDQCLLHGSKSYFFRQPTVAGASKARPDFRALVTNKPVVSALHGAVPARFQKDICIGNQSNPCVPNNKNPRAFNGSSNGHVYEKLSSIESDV", "assay": "Safetyscan47 Ion Channel, Opener", "type": "cell-based"}, "[2]": {"assay": "Pharmacokinetics in female Balb/c mice", "type": "in vivo, mouse"}, "CNR2": {"biological_target": "CNR2 (Homo sapiens, UniProt P34972)", "sequence (P34972 whole entry)": "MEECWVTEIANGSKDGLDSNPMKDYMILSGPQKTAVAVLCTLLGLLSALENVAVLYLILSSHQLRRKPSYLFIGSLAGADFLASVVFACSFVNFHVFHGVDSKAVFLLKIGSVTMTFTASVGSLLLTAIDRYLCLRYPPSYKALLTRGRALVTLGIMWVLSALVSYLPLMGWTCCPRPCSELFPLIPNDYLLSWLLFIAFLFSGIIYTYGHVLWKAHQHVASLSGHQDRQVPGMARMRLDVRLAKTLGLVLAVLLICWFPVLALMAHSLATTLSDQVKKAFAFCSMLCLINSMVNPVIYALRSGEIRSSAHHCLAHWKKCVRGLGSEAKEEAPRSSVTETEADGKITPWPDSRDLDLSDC", "assay": "Safetyscan47 GPCR cAMP, Agonist", "type": "cell-based"}, "HRH2": {"biological_target": "HRH2 (Homo sapiens, UniProt P25021)", "sequence (P25021 whole entry)": "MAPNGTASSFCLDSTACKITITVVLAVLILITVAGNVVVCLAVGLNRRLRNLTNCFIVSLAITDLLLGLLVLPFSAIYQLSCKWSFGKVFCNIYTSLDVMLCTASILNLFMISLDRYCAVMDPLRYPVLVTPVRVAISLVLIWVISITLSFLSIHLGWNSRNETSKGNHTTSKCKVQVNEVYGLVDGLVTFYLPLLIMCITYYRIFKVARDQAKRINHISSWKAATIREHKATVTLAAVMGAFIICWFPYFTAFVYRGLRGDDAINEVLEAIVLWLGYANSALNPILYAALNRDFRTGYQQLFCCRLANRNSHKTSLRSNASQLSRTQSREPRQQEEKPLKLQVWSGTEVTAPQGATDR", "assay": "Safetyscan47 GPCR cAMP, Antagonist", "type": "cell-based"}, "CHRM3": {"biological_target": "CHRM3 (Homo sapiens, UniProt P20309)", "sequence (P20309 whole entry)": "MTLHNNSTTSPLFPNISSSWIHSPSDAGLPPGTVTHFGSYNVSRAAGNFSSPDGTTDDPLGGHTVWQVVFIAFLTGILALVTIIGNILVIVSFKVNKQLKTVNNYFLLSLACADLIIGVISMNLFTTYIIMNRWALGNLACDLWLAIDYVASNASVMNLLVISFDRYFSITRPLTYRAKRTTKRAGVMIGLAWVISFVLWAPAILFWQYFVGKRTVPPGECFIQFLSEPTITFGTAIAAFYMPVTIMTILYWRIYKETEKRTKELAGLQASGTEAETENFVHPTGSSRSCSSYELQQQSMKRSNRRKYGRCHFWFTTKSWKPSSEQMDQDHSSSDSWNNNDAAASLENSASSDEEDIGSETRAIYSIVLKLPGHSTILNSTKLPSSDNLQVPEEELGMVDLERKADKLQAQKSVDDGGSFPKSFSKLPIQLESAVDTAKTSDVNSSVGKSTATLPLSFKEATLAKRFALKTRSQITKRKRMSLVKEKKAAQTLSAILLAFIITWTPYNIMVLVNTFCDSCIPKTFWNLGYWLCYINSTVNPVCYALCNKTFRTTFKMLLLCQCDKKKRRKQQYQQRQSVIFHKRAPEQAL", "assay": "Safetyscan47 GPCR Calcium Flux, Agonist", "type": "cell-based"}, "[3]": {"settings": "IP 30 mg/kg, mouse, animal 11F031"}, "[4]": {"settings": "IP 30 mg/kg, mouse, animal 11F032"}, "[5]": {"settings": "IP 30 mg/kg, mouse, animal 11F033"}, "[6]": {"settings": "Table 3SA: IP 30 mg/kg, Mean N=2"}, "[7]": {"settings": "female, Balb/c, mouse, plasma, ip, 30 mg/kg"}}, "note": "Bridge positions count the residues as written; N and C are the ends. Peptide text beside a SMILES is read from it."}
{"smiles": "CC[C@H](C)[C@H](NC(=O)[C@H](CC(C)C)NC(=O)[C@H](CC(=O)O)NC(=O)CNC(=O)[C@H](CCCNC(=N)N)NC(=O)[C@@H](NC(=O)[C@H](Cc1ccccc1)NC(=O)[C@H](Cc1ccc(O)cc1)NC(=O)[C@@H]1CCC(=O)NCC(=O)NCC(=O)N[C@@H](CCCNC(=N)N)C(=O)NCC(=O)N[C@@H](Cc2c[nH]cn2)C(=O)N[C@@H](C(C)C)C(=O)N2CCC[C@H]2C(=O)N1)C(C)C)C(=O)N[C@@H](CO)C(=O)N[C@@H](Cc1ccccc1)C(=O)N[C@@H](Cc1ccc(O)cc1)C(=O)N[C@@H](CCCCN)C(=O)O", "note": "[lassotide 36] (GGRGHVPEYFVRGDLISFYK-OH; lactam N-8)", "values": [{"measurement": "EC50", "setting": "EDNRA", "value": "> 45", "unit": "µM"}, {"measurement": "Emax", "setting": "EDNRA; read-out: Max Response", "value": 1.75, "unit": "%"}, {"measurement": "half-life at 2 μM", "setting": "[1]", "value": 4.1, "unit": "h"}, {"measurement": "remaining at 1 h, 2 μM", "setting": "[1]", "value": 87.9, "unit": "%"}, {"measurement": "remaining at 3 h, 2 μM", "setting": "[1]", "value": 57.8, "unit": "%"}, {"measurement": "IC50", "setting": "HTR2B", "value": "> 45", "unit": "µM"}, {"measurement": "Emax", "setting": "HTR2B; read-out: Max Response", "value": 11.8, "unit": "%"}, {"measurement": "IC50", "setting": "VEGFR2", "value": "> 45", "unit": "µM"}, {"measurement": "Emax", "setting": "VEGFR2; read-out: Max Response", "value": 6.3, "unit": "%"}, {"measurement": "EC50", "setting": "NMDAR (1A/2B)", "value": "> 45", "unit": "µM"}, {"measurement": "Emax", "setting": "NMDAR (1A/2B); read-out: Max Response", "value": 4.66, "unit": "%"}, {"measurement": "AUCINF", "setting": "[2]; [3]", "value": 64500}, {"measurement": "AUClast", "setting": "[2]; [3]", "value": 64500}, {"measurement": "CL/F", "setting": "[2]; [3]", "value": 7.75}, {"measurement": "Cmax", "setting": "[2]; [3]", "value": 21000}, {"measurement": "Tmax", "setting": "[2]; [3]", "value": 2.0}, {"measurement": "Vz/F", "setting": "[2]; [3]", "value": 363}, {"measurement": "t1/2", "setting": "[2]; [3]", "value": 0.54}, {"measurement": "AUCINF", "setting": "[2]; [4]", "value": 71700}, {"measurement": "AUClast", "setting": "[2]; [4]", "value": 69400}, {"measurement": "CL/F", "setting": "[2]; [4]", "value": 6.97}, {"measurement": "Cmax", "setting": "[2]; [4]", "value": 27300}, {"measurement": "Tmax", "setting": "[2]; [4]", "value": 1.0}, {"measurement": "Vz/F", "setting": "[2]; [4]", "value": 389}, {"measurement": "t1/2", "setting": "[2]; [4]", "value": 0.64}, {"measurement": "AUClast", "setting": "[2]; [5]", "value": 885}, {"measurement": "Cmax", "setting": "[2]; [5]", "value": 10600}, {"measurement": "Tmax", "setting": "[2]; [5]", "value": 0.17}, {"measurement": "Vz", "setting": "[2]; Mouse, 30 mg/kg IP, mean", "value": 0.4, "unit": "L/kg"}, {"measurement": "AUCINF", "setting": "[2]; [6]", "value": 68100}, {"measurement": "Vz/F", "setting": "[2]; [6]", "value": 376}, {"measurement": "AUC(0-t)", "setting": "[2]; [7]", "value": 44900, "unit": "ng·h/mL"}, {"measurement": "CL/F", "setting": "[2]; [7]", "value": 7.36, "unit": "mL/min/kg"}, {"measurement": "Cmax", "setting": "[2]; [7]", "value": 19600, "unit": "ng/mL"}, {"measurement": "Tmax", "setting": "[2]; [7]", "value": 1.06, "unit": "h"}, {"measurement": "half-life", "setting": "[2]; [7]", "value": 0.592, "unit": "h"}, {"measurement": "EC50", "setting": "CNR2", "value": "> 45", "unit": "µM"}, {"measurement": "Emax", "setting": "CNR2; read-out: Max Response", "value": 6.08, "unit": "%"}, {"measurement": "IC50", "setting": "HRH2", "value": "> 45", "unit": "µM"}, {"measurement": "Emax", "setting": "HRH2; read-out: Max Response", "value": 2.58, "unit": "%"}, {"measurement": "EC50", "setting": "CHRM3", "value": "> 45", "unit": "µM"}, {"measurement": "Emax", "setting": "CHRM3; read-out: Max Response", "value": 2.89, "unit": "%"}]}
